Entries after “also recorded” stand apart in the source; their conditions may differ. Read-outs that look alike come from different tables or passages of the source.
Legend:
[1] = test system: T. brucei rhodesiense (STIB 900); assay: In vitro antitrypanosomal activity against bloodstream forms; format: cell-based; details: Trypanosoma brucei, read-out: T. brucei rhodesiense (STIB 900) IC50
Procedure: Compounds 1–5 were tested for their in vitro activity against bloodstream forms of T. brucei rhodesiense (causative agent of East African HAT).

recombinant TbGAPDH = biological target: T1, recombinant TbGAPDH (Trypanosoma brucei brucei, UniProt P22512); assay: TbGAPDH inhibition assay (spectrophotometric, NADH at 340 nm); format: biochemical; details: for inhibition at 50 µM / % Inhibition at c = 50 µM: 50 µM test compound, n.i. = no inhibition at 50 µM
T1 construct: histidine tag (cleaved yes); made in house; host or cells: E. coli BL21 (DE3)
T1 sequence (P22512 whole entry): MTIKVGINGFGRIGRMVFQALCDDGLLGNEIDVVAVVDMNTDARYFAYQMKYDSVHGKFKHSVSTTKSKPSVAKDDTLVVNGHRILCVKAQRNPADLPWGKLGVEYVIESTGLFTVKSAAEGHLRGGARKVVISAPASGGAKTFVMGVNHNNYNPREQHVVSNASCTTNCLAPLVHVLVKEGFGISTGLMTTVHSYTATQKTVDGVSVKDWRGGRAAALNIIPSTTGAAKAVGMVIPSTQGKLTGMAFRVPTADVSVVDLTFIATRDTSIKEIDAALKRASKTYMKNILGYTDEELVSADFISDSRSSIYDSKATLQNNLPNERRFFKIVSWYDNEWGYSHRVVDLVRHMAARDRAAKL
Procedure: To experimentally validate the predictions of the in silico screening, a spectrophotometric assay with recombinant TbGAPDH, measuring the increase of NADH during the conversion of 3-phosophoglyceraldehyde into 1,3-bisphosphoglycerate, was used. The increase of absorbance at 340 nm was measured for 1 min after the addition of the substrate. Initially, each test compound was added in a concentration of 50 µM and the slope of the resulting linear plots of absorbance vs. time compared to that of a control recorded in the absence of an inhibitor.
In order to determine the activity of TbGAPDH, a spectrophotometric assay was used as described before. For that purpose, the increasing amount of produced NADH was measured at 340 nm with a Hitachi U-2900 UV-VIS-Spectrophotometer as a linear indicator for the activity of the catalytic protein. The activity determined without the addition of an inhibitor was set to 100%; the measured inhibitions were calculated accordingly. The assay was performed at 30 °C, in a buffer of 0.1 M TEA, 0.1 M glycine and 0.1 M EDTA with varying concentrations of the tested compounds in a total volume of 1 mL containing 7.17 µg TbGAPDH, 1.5 mM NAD^+ and 0.5 mM G-3-P. The tested inhibitors were solved in DMSO, resulting in a final concentration of 0.1%–1% of solvent in the assay solution. […] Typically, 5–7 different concentrations were measured (each of them in triplicate) to determine IC50 values, which were calculated using the software “Prism 3.00” (GraphPad) via nonlinear regression analysis. The measured concentration/effect curves are shown in Supplementary Figures S14–S18.

[2] = Cytotoxicity against mammalian cells; format: cell-based, rat
[3] = test system: L6 rat skeletal myoblasts; assay: Cytotoxicity against mammalian cells; format: cell-based; details: SI = IC50(cytotoxicity)/IC50(parasite), L6 vs T. brucei rhodesiense
TbGAPDH [4] = details: most active inhibitor of natural origin previously known; cited from earlier work
TbGAPDH [5] = assay: Previously known TbGAPDH inhibitors (literature); format: biochemical, Trypanosoma brucei; details: literature IC50 12 µM compared with IC50 of Compound 2
Procedure: In comparison to previously-known TbGAPDH inhibitors, the IC50 values of our compounds are quite low, so that these hits obtained from in silico screening can be considered quite strong inhibitors of the target enzyme. To our knowledge, the strongest TbGAPDH inhibitor known up to now is a synthetic adenosine derivative with an IC50 of […] [17].

[6] = 30 °C, 1.5 mM NAD+, 0.5 mM G-3-P
[7] = bloodstream forms, mean ± margin of deviation of two independent determinations
[8] = 30 °C, 1.5 mM NAD+, 0.5 mM G-3-P, 5–7 concentrations in triplicate, nonlinear regression, read-out: IC50 (TbGAPDH inhibition)
[9] = L6 rat skeletal myoblasts, mean ± margin of deviation of two independent determinations, read-out: Cytotoxicity (L6) IC50

Which IC50 [1] does the source give for `Nc1nc(N)nc(Nc2ccc([As]3SCC(CO)S3)cc2)n1` (stereo not drawn) [Melarsoprol, reference compound] here?
Its IC50 is 0.005 ± 0.001 µM.

Which inhibition at 50 µM (recombinant TbGAPDH; [6]) does the source give for `CC(C)=CCc1c2c(c3occ(-c4ccc(O)c(O)c4)c(=O)c3c1O)C=CC(C)(C)O2` [NP-005755] here?
Its inhibition at 50 µM is 44%.

For `CCCCCCC/C=C/C=C/C(=O)NCCc1ccc(O)cc1` [NP-007496], which “% Inhibition at c = 50 µM” value (recombinant TbGAPDH; [6]) is on record?
Its value is “n.i”.

For `COc1cc(O)c2c(=O)c(-c3c(O)cc(O)c4c(=O)cc(-c5ccc(O)cc5)oc34)c(-c3ccc(O)cc3)oc2c1` [NP-008941], which “% Inhibition at c = 50 µM” value (recombinant TbGAPDH; [6]) is on record?
Its value is “n.i”.

Which “% Inhibition at c = 50 µM” value (recombinant TbGAPDH; [6]) does the source give for `COc1ccc(/C=C/C(=O)c2c(OC)cc(OC)c(CC=C(C)C)c2OC)cc1` [NP-010904] here?
Its value is “n.i”.

Which IC50 [1, 7] does the source give for `CC(C)=CCC/C(C)=C/Cc1ccc(O)c(C(=O)c2c(O)cc(C(=O)O)cc2C(=O)O)c1O` [NP-011694 (1)] here?
Its IC50 is 39.5 ± 3.1 µM.

What about the IC50 ([2]; rat) of the same compound?
Its IC50 is 50.6 ± 3.8 µM.

And the “SI (selectivity index)” value [3]?
The value was 1.3.

What about the inhibition at 50 µM (recombinant TbGAPDH; [6]) of the same compound?
The inhibition at 50 µM was > 50%.

What about the IC50 (recombinant TbGAPDH; [8]) of the same compound?
The IC50 was 24.6 ± 1.03 µM.

With `CC(C)=CCc1c(O)c2c(c3c1OC(C)(C)C=C3)OCC(c1ccc(O)cc1O)C2=O` (stereo not drawn) [NP-012278] as the compound, how does the inhibition at 50 µM (recombinant TbGAPDH; [6]) read?
The inhibition at 50 µM was 24%.

For `CC(C)=CCc1c(O)c(CC=C(C)C)c2occ(-c3ccc(O)c(O)c3)c(=O)c2c1O` [NP-013070], which inhibition at 50 µM (recombinant TbGAPDH; [6]) is on record?
Its inhibition at 50 µM is 33%.

Which IC50 [1, 7] does the source give for `CC(C)=CCC/C(C)=C/Cc1ccc(O)c(C(=O)c2c(O)cc(C(=O)O)cc2C=O)c1O` [NP-013296 (2)] here?
Its IC50 is 41 ± 0.5 µM.

And the IC50 ([2]; rat)?
Its IC50 is 48.7 ± 3.8 µM.

What about the “SI (selectivity index)” value [3] of the same compound?
The value was 1.2.

What about the “SI (selectivity index)” value ([3]; listed as 2) of the same compound?
Its value is “not significantly selective”.

And the IC50 (recombinant TbGAPDH; [8])?
The IC50 was 4.73 ± 1.04 µM.

Which results are given for `CCCC(=O)c1c(O)c(C)c(O)c(CC2=C(O)C(C)(C)C(O)=C(C(C)=O)C2=O)c1O` [NP-013330 (3), flavaspidic acid AB]?
IC50 [1, 7]: 17.9 ± 1.6 µM; IC50 [2, 9]: 54.2 ± 0.5 µM; SI (selectivity index) [3]: 3.0; SI (selectivity index) ([3]; listed as 3): not significantly selective; also recorded: three; IC50 (recombinant TbGAPDH): 22 ± 1.03 µM

For `CC(C)=CCC/C(C)=C/Cc1ccc(O)c(C(=O)c2c(O)cc(C=O)cc2C(=O)O)c1O` [NP-013378 (4)], which IC50 [1, 7] is on record?
Its IC50 is 6.7 ± 2.2 µM.

What about the IC50 ([2]; rat) of the same compound?
Its IC50 is 48.9 ± 4.1 µM.

What about the “SI (selectivity index)” value [3] of the same compound?
Its value is 7.3.

And the “SI (selectivity index)” value ([3]; listed as 4)?
Its value is “seven”.

And the IC50 (recombinant TbGAPDH; [8])?
The IC50 was 6.68 ± 1.04 µM.

With `Oc1cc(O)cc(CCC/C=C\CCCCCCCCCc2cc(O)cc(O)c2)c1` [NP-014428 (5)] as the compound, how does the IC50 [1, 7] read?
Its IC50 is 29.3 ± 6.3 µM.

What about the IC50 ([2]; rat) of the same compound?
Its IC50 is 15.5 ± 1.8 µM.

What about the “SI (selectivity index)” value [3] of the same compound?
The value was 0.5.

What about the IC50 (recombinant TbGAPDH; [8]) of the same compound?
Its IC50 is 22.8 ± 1.01 µM.

For `O=C(/C=C\c1ccc(O)cc1)NCCCCNC(=O)/C=C/c1ccc(O)cc1` [NP-015973], which “% Inhibition at c = 50 µM” value (recombinant TbGAPDH; [6]) is on record?
The value was “n.i”.

For `C/C=C(\NC(=O)CCCCCCCCCCCCCCC(=O)O)C(=O)O` [NP-019430], which inhibition at 50 µM (recombinant TbGAPDH; [6]) is on record?
The inhibition at 50 µM was 45%.

With `COc1cc([C@@H]2c3cc4c(cc3[C@H](O)[C@H]3COC(=O)[C@H]23)OCO4)cc(OC)c1OC` [Podophyllotoxin, reference compound] as the compound, how does the IC50 [2, 9] read?
Its IC50 is 0.019 ± 0.002 µM.

For `COC(=O)/C=C(\C)CC[C@@]1(C)[C@H](C)CC[C@@]2(C)C(C(=O)O)=CCC[C@H]12` [monomethyl kolavate], which IC50 (TbGAPDH [4]) is on record?
Its IC50 is 12 µM.

And the “fold less potent than Compound 2 (TbGAPDH IC50)” value (TbGAPDH [5])?
The value was “about 2.5 fold”.

Source: paper PMC6332274, “In Silico Identification and in Vitro Activity of Novel Natural Inhibitors of Trypanosoma brucei Glyceraldehyde-3-phosphate-dehydrogenase” (Molecules, 2015)
